Assay results published in PMC9516332 (Frontiers in Oncology, 2022).
Where two headings read alike, the source gives them in different places.

Key:
134 cancer cell lines = test: Cell viability assay (ATPlite, 72 hours), IC50 on cancer cell line panel
[1] = target: panel of 255 wild-type kinases (Homo sapiens, UniProt Q00526); test: Kinase panel profiling at 1 µmol/L (MSA or IMAP), percentage inhibition; assay type: biochemical; details: CDK3/CycE1 kinase assay; 1 µmol/L single concentration; read-out: %-inhibition CDK3/CycE1
[2] = target: panel of 255 wild-type kinases (Homo sapiens, UniProt P50613); test: as above; assay type: biochemical; details: CDK7/CycH/MAT1 kinase assay; 1 µmol/L single concentration; read-out: %-inhibition CDK7/CycH/MAT1
[3] = target: panel of 255 wild-type kinases (Homo sapiens, UniProt P45983); test: as above; assay type: biochemical; details: kinase JNK1; 1 µmol/L single concentration; read-out: %-inhibition at 1 µmol/L, JNK1
[4] = target: panel of 255 wild-type kinases (Homo sapiens, UniProt P22607); test: as above; assay type: biochemical; details: kinase FGFR3; 1 µmol/L single concentration; read-out: %-inhibition at 1 µmol/L, FGFR3
[5] = target: panel of 255 wild-type kinases (Homo sapiens, UniProt P49760); test: as above; assay type: biochemical; details: kinase CLK2; 1 µmol/L single concentration; read-out: %-inhibition at 1 µmol/L, CLK2
[6] = target: panel of 255 wild-type kinases (Homo sapiens, UniProt Q13177); test: as above; assay type: biochemical; details: PAK2; 1 µmol/L single concentration; read-out: %-inhibition, PAK2
[7] = target: panel of 255 wild-type kinases (Homo sapiens, UniProt Q9HBH9); test: as above; assay type: biochemical; details: MNK2; 1 µmol/L single concentration; read-out: %-inhibition, MNK2
[8] = target: panel of 255 wild-type kinases (Homo sapiens, UniProt Q96RG2); test: as above; assay type: biochemical; details: PASK; 1 µmol/L single concentration; read-out: %-inhibition, PASK
[9] = target: panel of 255 wild-type kinases (Homo sapiens, UniProt O75582); test: as above; assay type: biochemical; details: MSK1; 1 µmol/L single concentration; read-out: %-inhibition, MSK1
AP-1060 (ETV6-NTRK3) = test: Cell viability assay; details: read-out: IC50 in cell proliferation assay

## Cn1cc(-c2cc3c(N4CCN(c5ncc([C@@](C)(N)c6ccc(F)cc6)cn5)CC4)ncnn3c2)cn1 [avapritinib]
134 cancer cell lines; Homo sapiens, MG-63, read-out: IC50 in cell proliferation assay
  IC50: 11.1 µM
134 cancer cell lines; Homo sapiens, MIA PaCa-2, read-out: IC50 in cell proliferation assay
  IC50: 11 µM
134 cancer cell lines; Homo sapiens, MKN-45, read-out: IC50 in cell proliferation assay
  IC50: 5.03 µM
134 cancer cell lines; Homo sapiens, MOLM-13, read-out: IC50 in cell proliferation assay
  IC50: 0.465 µM
134 cancer cell lines; Homo sapiens, MOLT-4, read-out: IC50 in cell proliferation assay
  IC50: 6.63 µM
134 cancer cell lines; Homo sapiens, MV4-11, read-out: IC50 in cell proliferation assay
  IC50: 0.47 µM
134 cancer cell lines; Homo sapiens, MeWo, read-out: IC50 in cell proliferation assay
  IC50: > 31.6 µM
134 cancer cell lines; Homo sapiens, NCCIT, read-out: IC50 in cell proliferation assay
  IC50: 3.52 µM
134 cancer cell lines; Homo sapiens, NCI-H82, read-out: IC50 in cell proliferation assay
  IC50: 2.42 µM
134 cancer cell lines; Homo sapiens, NCI-H460, read-out: IC50 in cell proliferation assay
  IC50: 16 µM
134 cancer cell lines; Homo sapiens, NCI-H661, read-out: IC50 in cell proliferation assay
  IC50: 1.66 µM
134 cancer cell lines; Homo sapiens, NCI-H716, read-out: IC50 in cell proliferation assay
  IC50: 6.81 µM
134 cancer cell lines; Homo sapiens, NCI-H1650, read-out: IC50 in cell proliferation assay
  IC50: 19.6 µM
134 cancer cell lines; Homo sapiens, NCI-H1975, read-out: IC50 in cell proliferation assay
  IC50: 11.1 µM
134 cancer cell lines; Homo sapiens, NCI-H2228, read-out: IC50 in cell proliferation assay
  IC50: 9.99 µM
134 cancer cell lines; Homo sapiens, OVCAR-3, read-out: IC50 in cell proliferation assay
  IC50: 22.1 µM
134 cancer cell lines; Homo sapiens, PFSK-1, read-out: IC50 in cell proliferation assay
  IC50: 13.8 µM
134 cancer cell lines; Homo sapiens, RL95-2, read-out: IC50 in cell proliferation assay
  IC50: 28.3 µM
134 cancer cell lines; Homo sapiens, RPMI-7951, read-out: IC50 in cell proliferation assay
  IC50: 13.5 µM
134 cancer cell lines; Homo sapiens, RS4-11, read-out: IC50 in cell proliferation assay
  IC50: 21 µM
134 cancer cell lines; Homo sapiens, Rec1, read-out: IC50 in cell proliferation assay
  IC50: 28.9 µM
134 cancer cell lines; Homo sapiens, SHP77, read-out: IC50 in cell proliferation assay
  IC50: 2.22 µM
134 cancer cell lines; Homo sapiens, SK-BR-3, read-out: IC50 in cell proliferation assay
  IC50: 8.31 µM
134 cancer cell lines; Homo sapiens, SK-N-AS, read-out: IC50 in cell proliferation assay
  IC50: 20.8 µM
134 cancer cell lines; Homo sapiens, SK-N-FI, read-out: IC50 in cell proliferation assay
  IC50: > 31.6 µM
134 cancer cell lines; Homo sapiens, SK-N-MC, read-out: IC50 in cell proliferation assay
  IC50: 6.43 µM
134 cancer cell lines; Homo sapiens, SK-N-SH, read-out: IC50 in cell proliferation assay
  IC50: 7.42 µM
134 cancer cell lines; Homo sapiens, SNU-5, read-out: IC50 in cell proliferation assay
  IC50: 9.36 µM
134 cancer cell lines; Homo sapiens, SNU-16, read-out: IC50 in cell proliferation assay
  IC50: 2.03 µM
134 cancer cell lines; Homo sapiens, SNU-C2B, read-out: IC50 in cell proliferation assay
  IC50: 10.5 µM
134 cancer cell lines; Homo sapiens, SU-DHL-1, read-out: IC50 in cell proliferation assay
  IC50: 2.31 µM
134 cancer cell lines; Homo sapiens, SU-DHL-6, read-out: IC50 in cell proliferation assay
  IC50: 3.18 µM
134 cancer cell lines; Homo sapiens, SUP-T1, read-out: IC50 in cell proliferation assay
  IC50: 9.11 µM
134 cancer cell lines; Homo sapiens, SW48, read-out: IC50 in cell proliferation assay
  IC50: 5.58 µM
134 cancer cell lines; Homo sapiens, SW480, read-out: IC50 in cell proliferation assay
  IC50: 25.4 µM
134 cancer cell lines; Homo sapiens, SW626, read-out: IC50 in cell proliferation assay
  IC50: 20.2 µM
134 cancer cell lines; Homo sapiens, SW780, read-out: IC50 in cell proliferation assay
  IC50: 19.3 µM
134 cancer cell lines; Homo sapiens, SW837, read-out: IC50 in cell proliferation assay
  IC50: > 31.6 µM
134 cancer cell lines; Homo sapiens, SW872, read-out: IC50 in cell proliferation assay
  IC50: 6.31 µM
134 cancer cell lines; Homo sapiens, SW900, read-out: IC50 in cell proliferation assay
  IC50: 21.9 µM
134 cancer cell lines; Homo sapiens, SW948, read-out: IC50 in cell proliferation assay
  IC50: 14 µM
134 cancer cell lines; Homo sapiens, SW982, read-out: IC50 in cell proliferation assay
  IC50: 10.8 µM
134 cancer cell lines; Homo sapiens, SW-620, read-out: IC50 in cell proliferation assay
  IC50: > 31.6 µM
134 cancer cell lines; Homo sapiens, T98G, read-out: IC50 in cell proliferation assay
  IC50: 0.372 µM
134 cancer cell lines; Homo sapiens, TCC-SUP, read-out: IC50 in cell proliferation assay
  IC50: 2.7 µM
134 cancer cell lines; Homo sapiens, THP-1, read-out: IC50 in cell proliferation assay
  IC50: 5.42 µM
134 cancer cell lines; Homo sapiens, U2OS, read-out: IC50 in cell proliferation assay
  IC50: 16.3 µM
134 cancer cell lines; Homo sapiens, U-87 MG, read-out: IC50 in cell proliferation assay
  IC50: 22.9 µM
134 cancer cell lines; Homo sapiens, U-118-MG, read-out: IC50 in cell proliferation assay
  IC50: 1.1 µM
134 cancer cell lines; Homo sapiens, UMUC3, read-out: IC50 in cell proliferation assay
  IC50: 5.49 µM
134 cancer cell lines; Hs766T, read-out: IC50 in cell proliferation assay
  IC50: > 31.6 µM
134 cancer cell lines; L-82, read-out: IC50 in cell proliferation assay
  IC50: 8.39 µM
134 cancer cell lines; Rh30, read-out: IC50 in cell proliferation assay
  IC50: 14.9 µM
[1]
  inhibition at 1 µM: -2.7%
[2]
  inhibition at 1 µM: 0.833%
[3]
  inhibition at 1 µM: -4.54%
[4]
  inhibition at 1 µM: 41%
[5]
  inhibition at 1 µM: 11%
[6]
  inhibition at 1 µM: -4.42%
[7]
  inhibition at 1 µM: 29%
[8]
  inhibition at 1 µM: 13%
[9]
  inhibition at 1 µM: 2.36%
AP-1060 (ETV6-NTRK3)
  IC50: 3.46 µM
